Results as given in patent US9006139B2, “Active compound combinations” (Bayer Intellectual Property GmbH, priority 2009, dated 2015).

How the values were obtained:
Type in all cases: in vivo
[1] = system: Fusarium graminearum; settings: Table L; 62.5 ppm a.i.
[2] = system: Botrytis cinerea; test: Botrytis test (beans)/protective; settings: Botrytis cinerea, 48 h, Table F, test 3, read-out: Efficacy in % found
Experimental: (§1) Solvent: 24.5 parts by weight of acetone
(§2) • 24.5 parts by weight of dimethylacetamide Emulsifier: 1 part by weight of alkylaryl polyglycol ether
To produce a suitable preparation of active compound, 1 part by weight of active compound is mixed with the stated amounts of solvent and emulsifier, and the concentrate is diluted with water to the desired concentration. To test for protective activity, young plants are sprayed with the preparation of active compound. After the spray coating has dried on, 2 small pieces of agar covered with growth of Botrytis cinerea are placed on each leaf. The inoculated plants are placed in a darkened chamber at 20° C. and a relative atmospheric humidity of 100%. 2 days after the inoculation, the size of the lesions on the leaves is evaluated. 0% means an efficacy which corresponds to that of the control, while an efficacy of 100% means that no disease is observed.

[3] = system: Puccinia triticina; test: Puccinia triticina-test (wheat)/preventive; settings: Table M; 62.5 ppm a.i.
Experimental: (§3) Solvent: 49 parts by weight of n,n-dimethylacetamid
(§4) Emulsifier: 1 part by weight of alkylaryl polyglycol ether
To produce a suitable preparation of active compound, 1 part by weight of active compound or active compound combination is mixed with the stated amounts of solvent and emulsifier, and the concentrate is diluted with water to the desired concentration. To test for preventive activity, young plants are sprayed with the preparation of active compound or active compound combination at the stated rate of application. After the spray coating has been dried, the plants are sprayed with a spore suspension of Puccinia triticina. The plants remain for 48 hours in an incubation cabinet at approximately 20° C. and a relative atmospheric humidity of approximately 100%. The plants are placed in the greenhouse at a temperature of approximately 20° C. and a relative atmospheric humidity of approximately 80%. The test is evaluated 8 days after the inoculation. 0% means an efficacy which corresponds to that of the untreated control, while an efficacy of 100% means that no disease is observed.

[4] = system: Alternaria solani; test: Alternaria test (tomatoes)/protective; settings: Table E, test 2, 2.5 ppm a.i.; for pest or weed control at 2.5 ppm: Alternaria solani, 72 h, read-out: Efficacy in % found
Experimental: as §1, §2
To produce a suitable preparation of active compound, 1 part by weight of active compound is mixed with the stated amounts of solvent and emulsifier, and the concentrate is diluted with water to the desired concentration. To test for protective activity, young plants are sprayed with the preparation of active compound at the stated rate of application. After the spray coating has dried on, the plants are inoculated with an aqueous spore suspension of Alternaria solani. The plants are then placed in an incubation cabinet at approximately 20° C. and a relative atmospheric humidity of 100%. The test is evaluated 3 days after the inoculation. 0% means an efficacy which corresponds to that of the control while an efficacy of 100% means that no disease is observed.

[5] = system: Blumeria graminis fsp. tritici; test: Blumeria test (wheat)/preventive; settings: Table G; 62.5 ppm a.i.
Experimental: as §3, §4
To produce a suitable preparation of active compound, 1 part by weight of active compound or active compound combination is mixed with the stated amounts of solvent and emulsifier, and the concentrate is diluted with water to the desired concentration. To test for preventive activity, young plants are sprayed with the preparation of active compound or active compound combination at the stated rate of application. After the spray coating has been dried, the plants are dusted with spores of Blumeria graminis fsp. tritici. The plants are placed in the greenhouse at a temperature of approximately 18° C. and a relative atmospheric humidity of approximately 80% to promote the development of mildew pustules. The test is evaluated 7 days after the inoculation. 0% means an efficacy which corresponds to that of the untreated control, while an efficacy of 100% means that no disease is observed.

[6] = system: Sphaerotheca fuliginea; test: Sphaerotheca test (cucumbers)/protective; settings: Table C, test 4; 5 ppm a.i.
Experimental: as §1, §2
To produce a suitable preparation of active compound, 1 part by weight of active compound is mixed with the stated amounts of solvent and emulsifier, and the concentrate is diluted with water to the desired concentration. To test for protect activity, young plants are sprayed with the preparation of active compound at the stated rate of application. After the spray coating has dried on, the plants are inoculated with an aqueous spore suspension of Sphaerotheca fuliginea. The plants are then placed in a greenhouse at approximately 23° C. and a relative atmospheric humidity of approximately 70%. The test is evaluated 7 days after the inoculation. 0% means an efficacy which corresponds to that of the control, while an efficacy of 100% means that no disease is observed.

SMILES: CC1(C)CCC(Cc2ccc(Cl)cc2)C1(O)Cn1cncn1 (stereo not shown) [1.30, metconazole]
- Efficacy in % found [1]: 0%

SMILES: CC(C)CC(C)c1sccc1NC(=O)c1cn(C)nc1C(F)(F)F (stereo not shown) [(2.20), penthiopyrad]
- pest or weed control at 2.5 ppm ([2]; 2.5 ppm a.i.): 65%
- Efficacy in % found [3]: 70%
- pest or weed control at 2.5 ppm [4]: 50%

SMILES: CNC(=O)/C(=N/OC)c1ccccc1Oc1ccccc1 [(3.10), metominostrobin]
- Efficacy in % found [5]: 13%
- pest or weed control at 50 ppm ([2]; 50 ppm a.i.): 55%
- pest or weed control at 2.5 ppm [4]: 15%

SMILES: CO/C=C(/C(=O)OC)c1ccccc1COc1cccc(C(F)(F)F)n1 [(3.12), picoxystrobin]
- Efficacy in % found [3]: 80%
- Efficacy in % found [6]: 62%
- Efficacy in % found [4]: 60%
